Data from article PMC4529466, “Intradermal insulin infusion achieves faster insulin action than subcutaneous infusion for 3-day wear” (Drug Delivery and Translational Research, 2015).

System: blood glucose
Assay: Postprandial blood glucose pharmacodynamics after meal bolus, 3-day ID vs SC infusion
Assay type: in vivo, human (T1DM patients)
Details: ID; for BGavg0–1 / BGmax0–1 / ΔAUC-BG0–1 / ΔBGmax0–1 / BGavg0–1.5 / BGmax0–1.5 / ΔAUC-BG0–1.5 / ΔBGmax0–1.5 / BGavg0–2 / BGmax0–2 / ΔAUC-BG0–2 / ΔBGmax0–2 / BGavg0–4 / BGmax0–4 / ΔAUC-BG0–4 / ΔBGmax0–4 / BG1 / ΔBG1 / BG1.5 / ΔBG1.5 / BG2 / ΔBG2 / BG4 / ΔBG4: mean ± SD; for BG1 / ΔBG1: at 1 h; for BG1.5 / ΔBG1.5: at 1.5 h; for BG2 / ΔBG2: at 2 h; for BG4 / ΔBG4: at 4 h
From the text: This was a single center, open-label, two-period crossover study, randomized by infusion order, in T1DM patients on continuous subcutaneous insulin infusion (CSII). The protocol was approved by an independent ethics committee (Ethikkommission der Ärztekammer Nordrhein, Düsseldorf, Germany), appropriate regulatory bodies (German Federal Institute for Drugs and Medical Devices (BfArM)), and conducted in compliance with good clinical practice (GCP), the Declaration of Helsinki, and applicable regulatory requirements.
The study was completed over a multi-week period consisting of three study visits: a screening visit (V1) and two interventional visits (V2 and V3). After establishing eligibility and enrollment, patients received treatment during two interventional visits: one SC and one ID basal/bolus infusion of insulin aspart (NovoRapid® U-100, Novo Nordisk, Copenhagen, Denmark) administered over 3 days in a randomized order.
Individual meal bolus doses were determined based on patient self-reported insulin to carbohydrate ratios and insulin sensitivity, historical self-reported insulin usage for meal coverage, and clinician review and adjustment of insulin usage during the in-clinic BG stabilization period the evening prior to the first morning meal. Basal insulin infusion rates were initiated based on the patient’s known daily delivery profile and could be adjusted by the clinician to maintain levels within 70–160 mg/dL according to a predetermined sliding scale and hourly changes in glycemia. A continuous glucose monitor (Seven Plus®, DexCom Inc., San Diego, CA) calibrated per manufacturer’s recommendations was applied to continuously monitor glycemia as a safety measure, in addition to periodic blood sampling for BG determination.
After maintaining targeted blood glucose range during the preceding night, bolus insulin doses were administered via the respective infusion catheter prior to standardized breakfast and lunch test meals on each of the three treatment days. Each meal insulin bolus was calculated based on the patient’s insulin sensitivity and previous hours change in BG per sliding scale then delivered immediately prior to breakfast (t = 0 min) and lunch (t = 360 min) consumption. Breakfast was a high glycemic index (60 g carbohydrates) solid meal, and lunch was a mixed meal based on the individual’s calculated daily energy intake and equivalent in caloric composition by day. Breakfast and lunch meals were consumed within 15 min followed by serial blood sampling with BG monitoring for a period of 6 and 4 h, respectively. Patients were asked to remain sedentary for 2 h after meals. Identical study procedures were utilized for the remaining dosing visit days (Fig. 2).
To assess insulin absorption kinetics and glycemic response, blood samples for measurements of insulin aspart and blood glucose in serum were drawn at predefined time points throughout dosing visits. Serial samples for safety BG determination, but not PK analysis, were obtained at a minimum every 2 h. Meal PK/PD analysis samples were acquired immediately pre-bolus and for 4–6 h post-bolus for breakfast and lunch meals, with a higher frequency during the first 2 h to capture insulin and BG peak levels {Post-bolus breakfast time points (min): 0, 10, 15, 20, 25, 30, 35, 40, 45, 50, 55, 60, 65, 70, 80, 90, 120, 150, 180, 210, 240, 300, 330, 360; Post-bolus lunch time points (min): 0, 10, 20, 30, 40, 50, 60, 70, 80, 90, 120, 180, 240, 300}. Sampling times were based on previous clinical study experience for bolus microneedle insulin delivery and had increased sampling frequency in the first 90 min post-delivery to capture the rapid insulin peaks from microneedle ID delivery. Blood samples for evening meal and basal period PK assessment could not be obtained due to daily blood draw volume limits for patient safety. Serum insulin aspart was measured by a third party laboratory (IKFE GmbH, Mainz, Germany) using a validated insulin assay (Invitron ELISA kit). […]

[1] = 0–1 h, Days 1–3 combined, all test meals, n = 150–156
[2] = 0–1 h, across all study days and meals
[3] = 0–1.5 h, Days 1–3 combined, all test meals, n = 150–156
[4] = 0–1.5 h, across all study days and meals
[5] = 0–2 h, Days 1–3 combined, all test meals, n = 150–156
[6] = 0–2 h, across all study days and meals
[7] = 0–4 h, Days 1–3 combined, all test meals, n = 150–156
[8] = Days 1–3 combined, all test meals, n = 150–156

insulin aspart
BGavg0–1 (0–1 h, Day 1, across meals): 135 ± 45.9 mg/dL
BGmax0–1 (0–1 h, Day 1, across meals): 159 ± 53.1 mg/dL
ΔAUC-BG0–1 (0–1 h, Day 1, across meals): 17.2 ± 22.3 mg·h/dL
ΔBGmax0–1 (0–1 h, Day 1, across meals): 41.3 ± 32.1 mg/dL
BGavg0–1 (0–1 h, Day 2, across meals): 138 ± 37.4 mg/dL
BGmax0–1 (0–1 h, Day 2, across meals): 162 ± 43.0 mg/dL
ΔAUC-BG0–1 (0–1 h, Day 2, across meals): 18.7 ± 22.0 mg·h/dL
ΔBGmax0–1 (0–1 h, Day 2, across meals): 43.1 ± 30.2 mg/dL
BGavg0–1 (0–1 h, Day 3, across meals): 136 ± 37.3 mg/dL
BGmax0–1 (0–1 h, Day 3, across meals): 162 ± 41.5 mg/dL
ΔAUC-BG0–1 (0–1 h, Day 3, across meals): 18.5 ± 19.2 mg·h/dL
ΔBGmax0–1 (0–1 h, Day 3, across meals): 44.2 ± 28.1 mg/dL
BGavg0–1 [1]: 136 ± 40.5 mg/dL
BGmax0–1 [1]: 161 ± 46.2 mg/dL
ΔAUC-BG0–1 [1]: 18.1 ± 21.2 mg·h/dL
ΔBGmax0–1 [1]: 42.8 ± 30.1 mg/dL
Intra-subject variability of BGavg [2]: 26.3 %CV
Intra-subject variability of BGmax [2]: 25.2 %CV
BGavg0–1.5 (0–1.5 h, Day 1, across meals): 137 ± 42.1 mg/dL
BGmax0–1.5 (0–1.5 h, Day 1, across meals): 160 ± 46.8 mg/dL
ΔAUC-BG0–1.5 (0–1.5 h, Day 1, across meals): 32.4 ± 41.7 mg·h/dL
ΔBGmax0–1.5 (0–1.5 h, Day 1, across meals): 45.0 ± 34.5 mg/dL
BGavg0–1.5 (0–1.5 h, Day 2, across meals): 144 ± 39.9 mg/dL
BGmax0–1.5 (0–1.5 h, Day 2, across meals): 169 ± 45.6 mg/dL
ΔAUC-BG0–1.5 (0–1.5 h, Day 2, across meals): 36.8 ± 40.8 mg·h/dL
ΔBGmax0–1.5 (0–1.5 h, Day 2, across meals): 49.5 ± 33.5 mg/dL
BGavg0–1.5 (0–1.5 h, Day 3, across meals): 143 ± 40.2 mg/dL
BGmax0–1.5 (0–1.5 h, Day 3, across meals): 172 ± 45.0 mg/dL
ΔAUC-BG0–1.5 (0–1.5 h, Day 3, across meals): 39.3 ± 36.8 mg·h/dL
ΔBGmax0–1.5 (0–1.5 h, Day 3, across meals): 54.8 ± 34.2 mg/dL
BGavg0–1.5 [3]: 141 ± 40.6 mg/dL
BGmax0–1.5 [3]: 167 ± 45.8 mg/dL
ΔAUC-BG0–1.5 [3]: 36.0 ± 39.8 mg·h/dL
ΔBGmax0–1.5 [3]: 49.5 ± 34.1 mg/dL
Intra-subject variability of BGavg [4]: 25.6 %CV
Intra-subject variability of BGmax [4]: 24.5 %CV
BGavg0–2 (0–2 h, Day 1, across meals): 139 ± 43.8 mg/dL
BGmax0–2 (0–2 h, Day 1, across meals): 165 ± 47.8 mg/dL
ΔAUC-BG0–2 (0–2 h, Day 1, across meals): 47.8 ± 63.1 mg·h/dL
ΔBGmax0–2 (0–2 h, Day 1, across meals): 49.4 ± 36.7 mg/dL
BGavg0–2 (0–2 h, Day 2, across meals): 146 ± 41.9 mg/dL
BGmax0–2 (0–2 h, Day 2, across meals): 171 ± 46.5 mg/dL
ΔAUC-BG0–2 (0–2 h, Day 2, across meals): 53.9 ± 61.9 mg·h/dL
ΔBGmax0–2 (0–2 h, Day 2, across meals): 52.2 ± 33.7 mg/dL
BGavg0–2 (0–2 h, Day 3, across meals): 148 ± 41.8 mg/dL
BGmax0–2 (0–2 h, Day 3, across meals): 176 ± 44.9 mg/dL
ΔAUC-BG0–2 (0–2 h, Day 3, across meals): 62.8 ± 56.3 mg·h/dL
ΔBGmax0–2 (0–2 h, Day 3, across meals): 59.5 ± 34.9 mg/dL
BGavg0–2 [5]: 144 ± 42.4 mg/dL
BGmax0–2 [5]: 170 ± 46.4 mg/dL
ΔAUC-BG0–2 [5]: 54.5 ± 60.6 mg·h/dL
ΔBGmax0–2 [5]: 53.5 ± 35.2 mg/dL
Intra-subject variability of BGavg [6]: 25.9 %CV
Intra-subject variability of BGmax [6]: 23.8 %CV
BGavg0–4 (0–4 h, Day 1, across meals): 141 ± 44.0 mg/dL
BGmax0–4 (0–4 h, Day 1, across meals): 178 ± 49.1 mg/dL
ΔAUC-BG0–4 (0–4 h, Day 1, across meals): 105 ± 148 mg·h/dL
ΔBGmax0–4 (0–4 h, Day 1, across meals): 64.0 ± 43.6 mg/dL
BGavg0–4 (0–4 h, Day 2, across meals): 148 ± 41.3 mg/dL
BGmax0–4 (0–4 h, Day 2, across meals): 186 ± 43.2 mg/dL
ΔAUC-BG0–4 (0–4 h, Day 2, across meals): 120 ± 140 mg·h/dL
ΔBGmax0–4 (0–4 h, Day 2, across meals): 69.4 ± 36.8 mg/dL
BGavg0–4 (0–4 h, Day 3, across meals): 156 ± 45.0 mg/dL
BGmax0–4 (0–4 h, Day 3, across meals): 188 ± 49.8 mg/dL
ΔAUC-BG0–4 (0–4 h, Day 3, across meals): 156 ± 140 mg·h/dL
ΔBGmax0–4 (0–4 h, Day 3, across meals): 70.4 ± 42.2 mg/dL
BGavg0–4 [7]: 148 ± 43.6 mg/dL
BGmax0–4 [7]: 184 ± 47.4 mg/dL
ΔAUC-BG0–4 [7]: 126 ± 144 mg·h/dL
ΔBGmax0–4 [7]: 67.8 ± 40.8 mg/dL
Intra-subject variability of BGmax (0–4 h, across all study days and meals): 21.1 %CV
BG1 (Day 1, across meals): 151 ± 56.0 mg/dL
ΔBG1 (Day 1, across meals): 33.3 ± 38.2 mg/dL
BG1 (Day 2, across meals): 155 ± 45.8 mg/dL
ΔBG1 (Day 2, across meals): 35.8 ± 35.4 mg/dL
BG1 (Day 3, across meals): 156 ± 45.2 mg/dL
ΔBG1 (Day 3, across meals): 38.2 ± 32.9 mg/dL
BG1 [8]: 154 ± 49.3 mg/dL
ΔBG1 [8]: 35.6 ± 35.5 mg/dL
BG1.5 (Day 1, across meals): 146 ± 52.2 mg/dL
ΔBG1.5 (Day 1, across meals): 31.0 ± 44.4 mg/dL
BG1.5 (Day 2, across meals): 155 ± 51.4 mg/dL
ΔBG1.5 (Day 2, across meals): 35.8 ± 44.4 mg/dL
BG1.5 (Day 3, across meals): 163 ± 51.3 mg/dL
ΔBG1.5 (Day 3, across meals): 45.7 ± 41.2 mg/dL
BG1.5 [8]: 154 ± 51.8 mg/dL
ΔBG1.5 [8]: 37.2 ± 43.6 mg/dL
BG2 (Day 1, across meals): 145 ± 54.5 mg/dL
ΔBG2 (Day 1, across meals): 30.2 ± 48.5 mg/dL
BG2 (Day 2, across meals): 152 ± 51.9 mg/dL
ΔBG2 (Day 2, across meals): 33.1 ± 46.1 mg/dL
BG2 (Day 3, across meals): 165 ± 50.5 mg/dL
ΔBG2 (Day 3, across meals): 48.0 ± 43.3 mg/dL
BG2 [8]: 154 ± 52.7 mg/dL
ΔBG2 [8]: 36.7 ± 46.5 mg/dL
BG4 (Day 1, across meals): 145 ± 52.1 mg/dL
ΔBG4 (Day 1, across meals): 29.3 ± 54.1 mg/dL
BG4 (Day 2, across meals): 147 ± 55.5 mg/dL
ΔBG4 (Day 2, across meals): 28.0 ± 55.7 mg/dL
BG4 (Day 3, across meals): 160 ± 60.1 mg/dL
ΔBG4 (Day 3, across meals): 43.6 ± 54.8 mg/dL
BG4 [8]: 150 ± 55.9 mg/dL
ΔBG4 [8]: 33.3 ± 54.9 mg/dL
BG at 1 h (p = 0.0121 vs SC): 154
Intra-subject variability of BG (time 1 h, across all study days and meals): 29.1 %CV
Intra-subject variability of BG (time 1.5 h, across all study days and meals): 31.5 %CV
Intra-subject variability of ΔBG (time 2 h, across all study days and meals): 90.2 %CV
